In the experiment the target is human TRPA1 (Homo sapiens (Human), UniProt O75762). As to the kind of experiment: hTRPA1 CHO Ca2+ FLIPR assay (block of cinnamaldehyde induced calcium influx). Conditions: CHO cells expressing TRPA1; 75 uM cinnamaldehyde; Hill coefficient fixed to 1.5; read-out: hTRPA1 (hTRPA1 CHO Ca2+ MAX EVO (IC50)). The experiment is classed as cell-based. An outline of the steps:
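CHO cells expressing TRPA1 loaded with calcium dye (1 h at 37° C, then 15 min at room temperature) in HBSS/20 mM HEPES pH 7.4/0.02% BSA. Compounds preincubated 20 min at room temperature before cinnamaldehyde addition, with FLIPR Ca2+ readout. IC50 from Hill fit, n fixed at 1.5.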

The source of these data is patent US10913742B2, “Oxadiazolones as transient receptor potential channel inhibitors” (Genentech, Inc., priority 2017, dated 2021).

human TRPA1, sequence (O75762 whole entry): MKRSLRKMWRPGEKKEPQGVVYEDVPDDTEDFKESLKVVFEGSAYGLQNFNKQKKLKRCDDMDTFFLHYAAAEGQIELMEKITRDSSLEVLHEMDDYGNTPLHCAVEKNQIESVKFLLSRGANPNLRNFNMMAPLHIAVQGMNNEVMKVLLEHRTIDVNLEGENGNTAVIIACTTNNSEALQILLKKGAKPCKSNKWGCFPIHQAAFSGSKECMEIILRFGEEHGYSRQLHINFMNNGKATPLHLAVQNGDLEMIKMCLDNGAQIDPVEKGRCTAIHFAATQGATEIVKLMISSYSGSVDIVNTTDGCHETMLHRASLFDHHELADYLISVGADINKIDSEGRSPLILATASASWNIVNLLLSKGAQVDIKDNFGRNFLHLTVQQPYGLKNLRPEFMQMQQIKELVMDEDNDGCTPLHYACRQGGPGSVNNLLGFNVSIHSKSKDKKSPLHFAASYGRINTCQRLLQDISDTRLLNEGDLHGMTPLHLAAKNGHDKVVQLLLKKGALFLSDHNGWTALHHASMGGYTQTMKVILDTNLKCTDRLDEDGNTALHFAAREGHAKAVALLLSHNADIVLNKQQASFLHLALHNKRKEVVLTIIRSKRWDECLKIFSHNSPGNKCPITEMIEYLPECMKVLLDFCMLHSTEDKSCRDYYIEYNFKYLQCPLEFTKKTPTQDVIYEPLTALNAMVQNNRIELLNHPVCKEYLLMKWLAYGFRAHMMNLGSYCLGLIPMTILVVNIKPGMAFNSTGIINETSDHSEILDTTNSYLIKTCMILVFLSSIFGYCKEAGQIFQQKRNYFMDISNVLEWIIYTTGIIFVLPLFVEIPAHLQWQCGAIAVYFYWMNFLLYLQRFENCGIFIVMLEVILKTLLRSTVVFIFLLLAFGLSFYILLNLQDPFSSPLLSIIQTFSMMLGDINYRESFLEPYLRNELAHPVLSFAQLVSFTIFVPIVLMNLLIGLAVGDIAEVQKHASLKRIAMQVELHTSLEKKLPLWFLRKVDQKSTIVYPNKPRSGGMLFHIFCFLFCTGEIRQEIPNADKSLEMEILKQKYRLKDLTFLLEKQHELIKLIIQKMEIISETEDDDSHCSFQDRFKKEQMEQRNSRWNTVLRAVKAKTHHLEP

For the compound `O=c1c2c(Cl)ccnc2ncn1Cc1nn([C@H]2C[C@H](c3ccc(Cl)cc3)C2)c(=O)o1` [compound 73, 5-[(5-chloro-4-oxo-pyrido[2,3-d]pyrimidin-3-yl)methyl]-3-[3-(4-chlorophenyl)cyclobutyl]-1,3,4-oxadiazol-2-one], the IC50 – broadly, the concentration that gives 50% inhibition – stood at 5.88 nM.

Turning to `Cn1cnc2ncn(Cc3nn(C[C@H](F)c4ccc(OC(F)F)cc4)c(=O)o3)c(=O)c21` (racemic) [compound 110, 5-[(7-methyl-6-oxo-purin-1-yl)methyl]-3-[rac-(2R)-2-[4-(difluoromethoxy)phenyl]-2-fluoro-ethyl]-1,3,4-oxadiazol-2-one], the IC50 stood at 81.3 nM.

On to `Cn1cnc2ncn(Cc3nn([C@@H]4CC[C@@H](c5cccc(F)c5)C4)c(=O)o3)c(=O)c21` (racemic) [compound 76, 5-[(7-methyl-6-oxo-purin-1-yl)methyl]-3-[rac-(1R,3R)-3-(3-fluorophenyl)cyclopentyl]-1,3,4-oxadiazol-2-one], for which the IC50 was 75.8 nM.

Turning to `Cc1cnnc2ncn(Cc3nn(CCc4ccc(Cl)cc4)c(=O)o3)c(=O)c12` [compound 27, 3-(4-chlorophenethyl)-5-((4-methyl-5-oxopyridazino[3,4-d]pyrimidin-6(5H)-yl)methyl)-1,3,4-oxadiazol-2(3H)-one], the IC50 was 49 nM.

In the case of `Cn1cnc2ncn(Cc3nn(C[C@H](F)c4ccc(Cl)cc4)c(=O)o3)c(=O)c21` [compound 14, (R)-3-(2-(4-chlorophenyl)-2-fluoroethyl)-5-((7-methyl-6-oxo-6H-purin-1(7H)-yl)methyl)-1,3,4-oxadiazol-2(3H)-one], the IC50 is 34 nM.

For `Cn1cnc2ncn(Cc3nn([C@H]4C[C@H](c5cccc(Cl)c5)C4)c(=O)o3)c(=O)c21` [compound 53, 3-[3-(3-chlorophenyl)cyclobutyl]-5-[(7-methyl-6-oxo-purin-1-yl)methyl]-1,3,4-oxadiazol-2-one], the IC50 turned out to be 44 nM.

As to `Cn1cnc2ncn(Cc3nn([C@H]4C[C@](F)(c5ccc(F)cc5)C4)c(=O)o3)c(=O)c21` [compound 97, 3-[3-fluoro-3-(4-fluorophenyl)cyclobutyl]-5-[(7-methyl-6-oxo-purin-1-yl)methyl]-1,3,4-oxadiazol-2-one], the IC50 amounted to 80.2 nM.

For `Cn1cnc2ncn(Cc3nn(CCCOc4cccc(Cl)c4)c(=O)o3)c(=O)c21` [compound 86, 1-([4-[3-(3-chlorophenoxy)propyl]-5-oxo-4,5-dihydro-1,3,4-oxadiazol-2-yl]methyl)-7-methyl-6,7-dihydro-1H-purin-6-one], the IC50 amounted to 22.6 nM.

On to `Cc1cc(C#N)nc2ncn(Cc3nn([C@H]4C[C@H](c5ccc(Cl)cc5)C4)c(=O)o3)c(=O)c12` [compound 93, trans-3-[[4-[3-(4-chlorophenyl)cyclobutyl]-5-oxo-1,3,4-oxadiazol-2-yl]methyl]-5-methyl-4-oxo-pyrido[2,3-d]pyrimidine-7-carbonitrile], for which the IC50 worked out at 4.84 nM.

Turning to `Cc1ncnc2ncn(Cc3nn(CCc4ccc(Cl)cc4)c(=O)o3)c(=O)c12` [compound 46, 3-(4-chlorophenethyl)-5-((5-methyl-4-oxopyrimido[4,5-d]pyrimidin-3(4H)-yl)methyl)-1,3,4-oxadiazol-2(3H)-one], the IC50 is 107 nM.

As to `Cn1cnc2ncn(Cc3nn([C@H]4C[C@H](c5ccc(F)cc5)C4)c(=O)o3)c(=O)c21` [compound 112, 3-[3-(4-fluorophenyl)cyclobutyl]-5-[(7-methyl-6-oxo-purin-1-yl)methyl]-1,3,4-oxadiazol-2-one], the IC50 worked out at 64.8 nM.

For the compound `Cn1cnc2ncn(Cc3nn([C@H]4CC[C@H](c5ccccc5)C4)c(=O)o3)c(=O)c21` (racemic) [compound 108, 5-[(7-methyl-6-oxo-purin-1-yl)methyl]-3-[rac-(1S,3S)-3-phenylcyclopentyl]-1,3,4-oxadiazol-2-one], the half-inhibitory concentration (IC50) is 156 nM.

For `Cn1cnc2ncn(Cc3nn([C@@H]4C[C@@H](F)[C@@H](c5ccc(Cl)cc5)C4)c(=O)o3)c(=O)c21` (racemic) [compound 82, 5-[(7-methyl-6-oxo-purin-1-yl)methyl]-3-[rac-(1S,3R,4R)-3-(4-chlorophenyl)-4-fluoro-cyclopentyl]-1,3,4-oxadiazol-2-one], the concentration for half-maximal inhibition (IC50) came to 43.9 nM.

In the case of `O=c1c2cccc(=O)n2ccn1Cc1nn([C@H]2C[C@H](c3ccc(Cl)cc3)C2)c(=O)o1` [compound 65, trans-2-[[4-[3-(4-chlorophenyl)cyclobutyl]-5-oxo-1,3,4-oxadiazol-2-yl]methyl]pyrido[1,2-a]pyrazine-1,6-dione], the IC50 is 21.1 nM.

As for `COc1ccc([C@H]2C[C@H](n3nc(Cn4cnc5ncn(C)c5c4=O)oc3=O)C2)cc1` [compound 54, 3-(3-(4-methoxyphenyl)cyclobutyl)-5-((7-methyl-6-oxo-6,7-dihydro-1H-purin-1-yl)methyl)-1,3,4-oxadiazol-2(3H)-one], the IC50 came to 105 nM.

In the case of `Cc1ccnc2ncn(Cc3nn([C@H]4C[C@](F)(c5ccc(F)cc5)C4)c(=O)o3)c(=O)c12` [compound 96, 3-[3-fluoro-3-(4-fluorophenyl)cyclobutyl]-5-[(5-methyl-4-oxo-pyrido[2,3-d]pyrimidin-3-yl)methyl]-1,3,4-oxadiazol-2-one], the IC50 is 18 nM.

Consider `O=c1c2cccnc2ncn1Cc1nn([C@H]2C[C@H](c3ccc(Cl)cc3)C2)c(=O)o1` [compound 98, trans-3-[3-(4-chlorophenyl)cyclobutyl]-5-[(4-oxopyrido[2,3-d]pyrimidin-3-yl)methyl]-1,3,4-oxadiazol-2-one], for which the IC50 came out at 16.2 nM.

As for `Cn1cnc2ncn(Cc3nn(CCc4ccccc4)c(=O)o3)c(=O)c21` [compound 4, 5-((7-methyl-6-oxo-6H-purin-1(7H)-yl)methyl)-3-phenethyl-1,3,4-oxadiazol-2(3H)-one], the IC50 was 1060 nM.

Consider `CN(C)c1ccc(CCn2nc(Cn3cnc4ncn(C)c4c3=O)oc2=O)cc1` [compound 17, 3-(4-(dimethylamino)phenethyl)-5-((7-methyl-6-oxo-6H-purin-1(7H)-yl)methyl)-1,3,4-oxadiazol-2(3H)-one], for which the IC50 came to 164 nM.

As to `Cc1ccc(=O)n2ccn(Cc3nn([C@H]4C[C@H](c5ccc(Cl)cc5)C4)c(=O)o3)c(=O)c12` [compound 58, 2-[[4-[3-(4-chlorophenyl)cyclobutyl]-5-oxo-1,3,4-oxadiazol-2-yl]methyl]-9-methyl-pyrido[1,2-a]pyrazine-1,6-dione], the IC50 is 40.3 nM.

As to `Cn1cnc2ncn(Cc3nn(CCCOc4cccc(F)c4)c(=O)o3)c(=O)c21` [compound 74, 3-[3-(3-fluorophenoxy)propyl]-5-[(7-methyl-6-oxo-purin-1-yl)methyl]-1,3,4-oxadiazol-2-one], the IC50 turned out to be 77.5 nM.

Take `Cn1cnc2ncn(Cc3nn(CCc4ccc5ccc(C#N)cc5c4)c(=O)o3)c(=O)c21` [compound 36, 7-[2-[5-[(7-methyl-6-oxo-purin-1-yl)methyl]-2-oxo-1,3,4-oxadiazol-3-yl]ethyl]naphthalene-2-carbonitrile]: the IC50 was 120 nM.

In the case of `Cn1cnc2ncn(Cc3nn(C[C@@H]4CCc5cc(Cl)ccc54)c(=O)o3)c(=O)c21` [compound 49, (R)-3-((5-chloro-2,3-dihydro-1H-inden-1-yl)methyl)-5-((7-methyl-6-oxo-6,7-dihydro-1H-purin-1-yl)methyl)-1,3,4-oxadiazol-2(3H)-one], the half-inhibitory concentration (IC50) came out at 61 nM.

As to `Cn1cnc2ncn(Cc3nn([C@@H]4CC[C@@H](c5cccc(Cl)c5)C4)c(=O)o3)c(=O)c21` (racemic) [compound 101, 5-[(7-methyl-6-oxo-purin-1-yl)methyl]-3-[rac-(1R,3R)-3-(3-chlorophenyl)cyclopentyl]-1,3,4-oxadiazol-2-one], the IC50 is 36.1 nM.

On to `Cn1cc(C#N)c2ncn(Cc3nn(CCc4ccc(Cl)cc4)c(=O)o3)c(=O)c21` [compound 56, 3-((4-(4-chlorophenethyl)-5-oxo-4,5-dihydro-1,3,4-oxadiazol-2-yl)methyl)-5-methyl-4-oxo-4,5-dihydro-3H-pyrrolo[3,2-d]pyrimidine-7-carbonitrile], for which the IC50 stood at 168 nM.

In the case of `Cn1cnc2c(C#N)nn(Cc3nc(CCc4ccc(Cl)cc4)no3)c2c1=O` [compound 30, 1-[[3-[2-(4-chlorophenyl)ethyl]-1,2,4-oxadiazol-5-yl]methyl]-6-methyl-7-oxo-pyrazolo[4,3-d]pyrimidine-3-carbonitrile], the IC50 amounted to 26.6 nM.

In the case of `Cn1cnc2ncn(Cc3nn(CCc4ccc(Cl)cc4)c(=O)o3)c2c1=O` [compound 26, 7-([4-[2-(4-chlorophenyl)ethyl]-5-oxo-4,5-dihydro-1,3,4-oxadiazol-2-yl]methyl)-1-methyl-6,7-dihydro-1H-purin-6-one], the IC50 was determined as 737 nM.

As for `Cc1cc(C#N)nc2ncn(Cc3nn(CCc4ccc(Cl)cc4)c(=O)o3)c(=O)c12` [compound 28, 3-((4-(4-chlorophenethyl)-5-oxo-4,5-dihydro-1,3,4-oxadiazol-2-yl)methyl)-5-methyl-4-oxo-3,4-dihydropyrido[2,3-d]pyrimidine-7-carbonitrile], the IC50 worked out at 9 nM.

For `Cn1cnc2ncn(Cc3nn(CCc4ccc5ccccc5c4)c(=O)o3)c(=O)c21` [compound 12, 5-((7-methyl-6-oxo-6H-purin-1(7H)-yl)methyl)-3-(2-(naphthalen-2-yl)ethyl)-1,3,4-oxadiazol-2(3H)-one], the IC50 came to 41 nM.

Take `Cn1nnc2ncn(Cc3nn([C@H]4C[C@H](c5ccc(Cl)cc5)C4)c(=O)o3)c(=O)c21` [compound 64, trans-3-[3-(4-chlorophenyl)cyclobutyl]-5-[(1-methyl-7-oxo-triazolo[4,5-d]pyrimidin-6-yl)methyl]-1,3,4-oxadiazol-2-one]: the IC50 turned out to be 76.9 nM.

As to `Cn1cnc2ncn(Cc3nn(CCc4ccc(C#N)cc4)c(=O)o3)c(=O)c21` [compound 5, 4-(2-(5-((7-methyl-6-oxo-6H-purin-1(7H)-yl)methyl)-2-oxo-1,3,4-oxadiazol-3(2H)-yl)ethyl)benzonitrile], the IC50 worked out at 1170 nM.
